Measured values reported in ChEMBL document CHEMBL1201862, “PubChem BioAssay data set” (2004).
Where “and” joins values, the source holds several entries; their conditions need not be identical. Identical values can stand only once.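 Results reflect a 48-hour exposure of cells in 96-well plates to compound at five concentrations. Here, GI50 denotes the concentration required for 50% inhibition of growth.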 Calls of active or inactive are those of the source. Rule as the data show it: active = GI50 up to about 1.1 µM and inactive = higher.

Key:
Assay in all cases: inhibition of tumour cell growth, NCI panel, 48 h
[1] = test system: A498
[2] = test system: CCRF-CEM
[3] = test system: COLO 205
[4] = test system: HCT-15
[5] = test system: HL-60
[6] = test system: HOP-92
[7] = test system: KM12
[8] = test system: M14
[9] = test system: Malme-3M
[10] = test system: SF-268
[11] = test system: SF-539
[12] = test system: SK-MEL-28
[13] = test system: SK-MEL-5
[14] = test system: SK-OV-3
[15] = test system: SN12C
[16] = test system: TK-10
[17] = test system: U-251
[18] = test system: UACC-257
[19] = test system: PC-3

Row | Structure (SMILES) | GI50 [1] | GI50 [2] | GI50 [3] | GI50 [4] | GI50 [5] | GI50 [6] | GI50 [7] | GI50 [8] | GI50 [9] | GI50 [10] | GI50 [11] | GI50 [12] | GI50 [13] | GI50 [14] | GI50 [15] | GI50 [16] | GI50 [17] | GI50 [18] | GI50 [19]
1 | COC(=O)C1CC(=O)CCC1c1ccccc1 (configuration not stated) | > 100 µM (inactive) | > 100 µM (inactive) | > 100 µM (inactive) | > 100 µM | > 100 µM (inactive) | > 100 µM (inactive) | > 100 µM (inactive) | > 100 µM (inactive) | > 100 µM (inactive) | > 100 µM (inactive) | > 100 µM (inactive) | > 100 µM (inactive) | > 100 µM (inactive) | > 100 µM (inactive) | > 100 µM (inactive) | > 100 µM (inactive) | > 100 µM (inactive) | > 100 µM (inactive) | 
2 | Cc1ccc(C(=O)OC[C@H]2CC[C@@H](n3cc(N(C)C4CCCCC4)c(=O)[nH]c3=O)O2)cc1 | 19.5 µM (inactive) | 27.4 µM (inactive) | 19.1 µM (inactive) | 24.5 µM | 27.9 µM (inactive) |  | 19.6 µM (inactive) | 11 µM (inactive) | 24.7 µM (inactive) | 28 µM (inactive) | 23.8 µM (inactive) | 53.1 µM (inactive) | 18.8 µM (inactive) | 8.28 µM (inactive) | 20.7 µM (inactive) | 30 µM (inactive) | 20.2 µM (inactive) | 32.7 µM (inactive) | 29.4 µM (inactive)
3 | C=C1C(OC(=O)/C=C/c2ccccc2)CC(OC(C)=O)C2(C)C1CC1CC(OC(C)=O)C(C)=C(C(OC(C)=O)C2OC(C)=O)C1(C)C (configuration not stated) | 31.6 µM (inactive) | 5.25 µM (inactive) | 34 µM (inactive) | 5.41 µM | 2.07 µM (inactive) | > 100 µM (inactive) | 8.59 µM (inactive) | > 100 µM (inactive) | > 100 µM (inactive) | > 100 µM (inactive) | > 100 µM (inactive) |  | 4.1 µM (inactive) | > 100 µM (inactive) | > 100 µM (inactive) | > 100 µM (inactive) | > 100 µM (inactive) |  | 
4 | CSC1=N/C(=C\c2cccs2)C(=O)N1CN1CCOCC1 | 64.9 µM (inactive) | 27.3 µM (inactive) | 45.5 µM (inactive) | 38.1 µM | 0.0465 µM (active) | 4.82 µM (inactive) | 57.7 µM (inactive) | 61.7 µM (inactive) | 44.7 µM (inactive) | 42.3 µM (inactive) |  | > 100 µM (inactive) | 41.1 µM (inactive) | > 100 µM (inactive) | 5.2 µM (inactive) | 86.7 µM (inactive) | 85.5 µM (inactive) |  | 50.8 µM (inactive)
5 | S=C(c1c[nH]c2ccccc12)N1CCN(c2ccccc2)CC1 | > 100 µM (inactive) | > 100 µM (inactive) | > 100 µM (inactive) | > 100 µM | > 100 µM (inactive) |  | 82.8 µM (inactive) | > 100 µM (inactive) | 18.8 µM (inactive) | 19.8 µM (inactive) | 71.6 µM (inactive) | 86.9 µM (inactive) | 80 µM (inactive) | > 100 µM (inactive) | 21.8 µM (inactive) | > 100 µM (inactive) | 14.2 µM (inactive) | > 100 µM (inactive) | > 100 µM (inactive)
6 | N=C(N)N/N=C/c1c(-c2cc([N+](=O)[O-])c(Cl)cc2Cl)nc2sccn12 | 1.62 µM (inactive) and 1.61 µM (inactive) | 0.714 µM (active) |  | 2.47 µM and 1.26 µM | 2.27 µM (inactive) and 1.53 µM (inactive) | 1.8 µM (inactive) and 1.13 µM (inactive) | 168 nM (active) and 1.19 µM (inactive) | 1.66 µM (inactive) | 1.67 µM (inactive) and 239 nM (active) | 1.83 µM (inactive) | 1.53 µM (inactive) and 1.85 µM (inactive) | 1.38 µM (inactive) and 1.47 µM (inactive) | 1.58 µM (inactive) and 1.35 µM (inactive) | 1.83 µM (inactive) | 2 µM (inactive) and 1.34 µM (inactive) | 1.54 µM (inactive) and 1.57 µM (inactive) | 1.05 µM (active) and 272 nM (active) | 1.41 µM (inactive) and 1.44 µM (inactive) | 1.45 µM (inactive) and 2.01 µM (inactive)
7 | O=c1[nH]c(=O)n(C2CC(O)C(CO)O2)cc1OS(=O)(=O)C(F)(F)F (configuration not stated) | > 100 µM (inactive) | > 100 µM (inactive) | > 100 µM (inactive) | > 100 µM | > 100 µM (inactive) | > 100 µM (inactive) | > 100 µM (inactive) | > 100 µM (inactive) | > 100 µM (inactive) | > 100 µM (inactive) | > 100 µM (inactive) | > 100 µM (inactive) | > 100 µM (inactive) | > 100 µM (inactive) | > 100 µM (inactive) | > 100 µM (inactive) | > 100 µM (inactive) |  | 
